From patent publication US12091411B2, “IRAK degraders and uses thereof” (Kymera Therapeutics, Inc., priority 2022, dated 2024) come the findings set out here.

As a reminder, the DC50 is the concentration giving 50% degradation.

The target in the test is T1, IRAK4 (Homo sapiens, UniProt Q9NWZ3).
T1 construct: Degradation of IRAK4 in OCI-LY10 was quantitatively measured using Meso Scale Discovery technology; endogenous in cells; host or cells: OCI-LY10
T1 sequence (Q9NWZ3 1-460): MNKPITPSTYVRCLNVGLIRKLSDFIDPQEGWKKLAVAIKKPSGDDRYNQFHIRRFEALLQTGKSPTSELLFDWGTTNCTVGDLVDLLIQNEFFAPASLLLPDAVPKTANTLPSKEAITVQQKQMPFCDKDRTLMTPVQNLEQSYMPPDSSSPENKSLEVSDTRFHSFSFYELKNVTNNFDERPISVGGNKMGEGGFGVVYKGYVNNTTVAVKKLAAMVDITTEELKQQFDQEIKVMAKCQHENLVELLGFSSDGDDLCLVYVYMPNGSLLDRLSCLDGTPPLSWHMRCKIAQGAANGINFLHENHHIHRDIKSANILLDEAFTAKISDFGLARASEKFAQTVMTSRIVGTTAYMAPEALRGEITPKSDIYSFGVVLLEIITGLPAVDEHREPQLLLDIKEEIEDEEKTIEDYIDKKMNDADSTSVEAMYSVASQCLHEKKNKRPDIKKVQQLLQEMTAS
Briefly: IRAK4 MSD Degradation in OCI-LY10. The settings on record: OCI-LY10 cells, MSD. It is filed as cell-based. The essentials: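 DC50, from a three-parameter logistic fit and reported as letter bins A (<0.01 μM), B, C, D (>0.2 μM or not tested), reflects IRAK4 loss measured by MSD electrochemiluminescence in OCI-LY10 lysates. Treatment: 8 doses, 1:3 steps, top 1 to 10 μM, 4 to 24 h, 37 °C.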

Setting [1] is: 4 hrs incubation, read-out: IRAK4 degradation in OCI-LY10 at 4 hrs: DC50.
Setting [2] is: 24 hrs incubation, read-out: IRAK4 degradation in OCI-LY10 at 24 hrs: DC50.

Where two headings read alike, the source gives them in different places.

Take `Cn1c(=O)n(C2CCC(=O)NC2=O)c2cccc(C3CCN(C[C@H]4CC[C@H](n5cc6cc(NC(=O)c7cccc(C#N)n7)ccc6n5)CC4)CC3(F)F)c21` (some centres unmarked) [I-716]: the DC50 under setting [1] was more than 200 nM and the DC50 under setting [2] was less than 10 nM.
`Cn1c(=O)n(C2CCC(=O)NC2=O)c2cccc([C@H]3CCN(C[C@H]4CC[C@H](n5cc6cc(NC(=O)c7cccc(C(F)(F)F)n7)ncc6n5)CC4)C[C@@H]3F)c21` (some centres unmarked) [I-717]: the DC50 was more than 200 nM under setting [1] and less than 10 nM under setting [2].
Regarding `Cn1c(=O)n(C2CCC(=O)NC2=O)c2cccc([C@H]3C[C@H](CO[C@H]4CCN(C[C@H]5CC[C@H](n6cc(NC(=O)c7cnn8ccc(N9C[C@H]%10C[C@@H]9CO%10)nc78)c(C(F)F)n6)CC5)C[C@@H]4F)C3)c21` (some centres unmarked) [I-718], the DC50 is more than 200 nM under setting [1] and less than 10 nM under setting [2].
The matching figures for `Cn1c(=O)n(C2CCC(=O)NC2=O)c2cccc(C3CCN(C[C@H]4CC[C@H](n5cc6cc(NC(=O)c7cnn8ccc(N9C[C@H]%10C[C@@H]9CO%10)nc78)ccc6n5)CC4)CC3(F)F)c21` (some centres unmarked) [I-719]: more than 200 nM and less than 10 nM.
The matching figures for `Cn1c(=O)n(C2CCC(=O)NC2=O)c2cccc(N3CCN([C@@H]4CCN(C[C@H]5CC[C@H](n6cc(NC(=O)c7cnn8ccc(N9C[C@H]%10C[C@@H]9CO%10)nc78)c(C(F)F)n6)CC5)CC4(F)F)CC3)c21` (some centres unmarked) [I-720]: more than 200 nM and less than 10 nM.
In the case of `Cn1c(=O)n(C2CCC(=O)NC2=O)c2cccc(N3CCN([C@H]4CCN(C[C@H]5CC[C@H](n6cc(NC(=O)c7cnn8ccc(N9C[C@H]%10C[C@@H]9CO%10)nc78)c(C(F)F)n6)CC5)CC4(F)F)CC3)c21` (some centres unmarked) [I-721], the DC50 runs as follows: under setting [1], more than 200 nM; under setting [2], less than 10 nM.
The matching figures for `Cn1c(=O)n(C2CCC(=O)NC2=O)c2cccc([C@H]3C[C@H](CO[C@@H]4CCN(C[C@H]5CC[C@H](n6cc(NC(=O)c7cnn8ccc(N9C[C@H]%10C[C@@H]9CO%10)nc78)c(C(F)F)n6)CC5)C[C@@H]4F)C3)c21` (some centres unmarked) [I-722]: more than 200 nM and less than 10 nM.
On the same counts, the results for `Cn1c(=O)n(C2CCC(=O)NC2=O)c2cccc(N3CCN(C4CCN(C[C@H]5CC[C@H](n6cc(NC(=O)c7cnn8ccc(N9CCC%10(COC%10)C9)nc78)c(C(F)F)n6)CC5)CC4(F)F)CC3)c21` (some centres unmarked) [I-723] are more than 200 nM and less than 10 nM.
For `Cn1c(=O)n(C2CCC(=O)NC2=O)c2ccc(N3CC(CN4CCN(C[C@H]5CC[C@H](n6cc(NC(=O)c7cnn8ccc(N9C[C@H]%10C[C@@H]9CO%10)nc78)c(C(F)F)n6)CC5)CC4)C3)c(F)c21` (some centres unmarked) [I-724], the DC50 runs as follows: under setting [1], more than 200 nM; under setting [2], less than 10 nM.
On the same counts, the results for `Cn1c(=O)n(C2CCC(=O)NC2=O)c2ccc(N3CC(CO[C@@H]4CCN(CC5CCC(n6cc(NC(=O)c7cnn8ccc(N9C[C@H]%10C[C@@H]9CO%10)nc78)c(C(F)F)n6)CC5)C[C@@H]4F)C3)c(F)c21` (some centres unmarked) [I-725] are more than 200 nM and more than 200 nM.
The matching figures for `Cn1c(=O)n(C2CCC(=O)NC2=O)c2cccc(C3=CCN(C[C@H]4CC[C@H](n5cc6cc(NC(=O)c7cccc(C(F)(F)F)n7)c(C(F)F)cc6n5)CC4)CC3F)c21` (some centres unmarked) [I-726]: more than 200 nM and less than 10 nM.
On the same counts, the results for `Cc1cccc(C(=O)Nc2ccc3nn([C@H]4CC[C@H](CN5CC[C@@H](c6cccc7c6n(C)c(=O)n7C6CCC(=O)NC6=O)[C@H](F)C5)CC4)cc3c2)n1` (some centres unmarked) [I-727] are more than 200 nM and less than 10 nM.
Regarding `Cn1c(=O)n(C2CCC(=O)NC2=O)c2cccc(N3CC(O[C@H]4CCN(C[C@H]5CC[C@H](n6cc(NC(=O)c7cnn8ccc(N9C[C@H]%10C[C@@H]9CO%10)nc78)c(C(F)F)n6)CC5)C[C@H]4F)C3)c21` (some centres unmarked) [I-728], the DC50 is more than 200 nM under setting [1] and less than 10 nM under setting [2].
The matching figures for `CO[C@]1(CN2CCN(C[C@H]3CC[C@H](n4cc(NC(=O)c5cnn6ccc(N7C[C@H]8C[C@@H]7CO8)nc56)c(C(F)F)n4)CC3)CC2)C[C@@H](c2cccc3c2n(C)c(=O)n3C2CCC(=O)NC2=O)C1` (some centres unmarked) [I-729]: more than 200 nM and less than 10 nM.
The matching figures for `Cn1c(=O)n(C2CCC(=O)NC2=O)c2cccc(N3CC(N4CCN([C@H]5CC[C@H](n6cc(NC(=O)c7cnn8ccc(N9C[C@H]%10C[C@@H]9CO%10)nc78)c(C(F)F)n6)CC5)CC4)C3)c21` (some centres unmarked) [I-730]: more than 200 nM and less than 10 nM.
On the same counts, the results for `Cn1c(=O)n(C2CCC(=O)NC2=O)c2cccc(C3CCN(C[C@H]4CC[C@H](n5cc6cc(NC(=O)c7cccc(C#N)n7)ncc6n5)CC4)CC3F)c21` (some centres unmarked) [I-731] are more than 200 nM and less than 10 nM.
Consider `Cn1c(=O)n(C2CCC(=O)NC2=O)c2cccc(N3CC(O[C@@H]4CCN(C[C@H]5CC[C@H](n6cc(NC(=O)c7cnn8ccc(N9C[C@H]%10C[C@@H]9CO%10)nc78)c(C(F)F)n6)CC5)C[C@H]4F)C3)c21` (some centres unmarked) [I-732], for which the DC50 runs as follows: under setting [1], more than 200 nM; under setting [2], less than 10 nM.
On the same counts, the results for `Cn1c(=O)n(C2CCC(=O)NC2=O)c2cccc(N3CC(O[C@H]4CCN(C[C@H]5CC[C@H](n6cc(NC(=O)c7cnn8ccc(N9C[C@H]%10C[C@@H]9CO%10)nc78)c(C(F)F)n6)CC5)C[C@@H]4F)C3)c21` (some centres unmarked) [I-733] are more than 200 nM and less than 10 nM.
The matching figures for `Cn1c(=O)n(C2CCC(=O)NC2=O)c2cccc(C3CCN(CC4CCC(n5cc6cc(NC(=O)c7cnn8ccc(N9CC%10CC9CO%10)cc78)ncc6n5)CC4)CC3(F)F)c21` (centres unmarked) [I-734]: more than 200 nM and less than 10 nM.
Take `Cn1c(=O)n(C2CCC(=O)NC2=O)c2cccc(N3CCN(C4CCN(C[C@H]5CC[C@H](n6cc(NC(=O)c7cnn8ccc(N9CC%10(COC%10)C9)nc78)c(C(F)F)n6)CC5)CC4(F)F)CC3)c21` (some centres unmarked) [I-735]: the half-maximal degradation concentration (DC50) is, setting by setting: under setting [1], more than 200 nM; under setting [2], less than 10 nM.
`Cn1c(=O)n(C2CCC(=O)NC2=O)c2ccc(N3CC4(CCN(C[C@H]5CC[C@H](n6cc7cc(NC(=O)c8cccc(C(F)(F)F)n8)ncc7n6)CC5)CC4(F)F)C3)c(F)c21` (some centres unmarked) [I-737]: the DC50 runs as follows: under setting [1], more than 200 nM; under setting [2], 10 to 100 nM.
In the case of `Cn1c(=O)n(C2CCC(=O)NC2=O)c2cccc(OC3CCN([C@H]4CC[C@H](n5cc(NC(=O)c6cnn7ccc(N8C[C@H]9C[C@@H]8CO9)nc67)c(C(F)F)n5)CC4)CC3)c21` (some centres unmarked) [I-739], the DC50 reads like this: under setting [1], more than 200 nM; under setting [2], less than 10 nM.
The matching figures for `Cn1c(=O)n(C2CCC(=O)NC2=O)c2cccc(OC3CCN([C@H]4CC[C@H](n5cc6cc(NC(=O)c7cccc(C(F)(F)F)n7)ncc6n5)CC4)CC3)c21` (some centres unmarked) [I-740]: more than 200 nM and less than 10 nM.
On the same counts, the results for `Cn1c(=O)n(C2CCC(=O)NC2=O)c2cccc(OC3CCN([C@H]4CC[C@H](n5cc6cc(NC(=O)c7cccc(C(F)(F)F)n7)ccc6n5)CC4)CC3)c21` (some centres unmarked) [I-741] are more than 200 nM and less than 10 nM.
Consider `Cn1c(=O)n(C2CCC(=O)NC2=O)c2ccc(N3CC(CO[C@@H]4CCN(C[C@H]5CC[C@H](n6cc(NC(=O)c7cnn8ccc(N9C[C@H]%10C[C@@H]9CO%10)nc78)c(C(F)F)n6)CC5)C[C@H]4F)C3)c(F)c21` (some centres unmarked) [I-742], for which the DC50 by setting is: under setting [1], more than 200 nM; under setting [2], less than 10 nM.
The matching figures for `Cn1c(=O)n(C2CCC(=O)NC2=O)c2ccnc(N3CCN([C@@H]4CCN(C[C@H]5CC[C@H](n6cc(NC(=O)c7cnn8ccc(N9C[C@H]%10C[C@@H]9CO%10)nc78)c(C(F)F)n6)CC5)CC4(F)F)CC3)c21` (some centres unmarked) [I-743]: more than 200 nM and less than 10 nM.
On the same counts, the results for `Cn1c(=O)n(C2CCC(=O)NC2=O)c2ccnc(N3CCN([C@H]4CCN(C[C@H]5CC[C@H](n6cc(NC(=O)c7cnn8ccc(N9C[C@H]%10C[C@@H]9CO%10)nc78)c(C(F)F)n6)CC5)CC4(F)F)CC3)c21` (some centres unmarked) [I-744] are more than 200 nM and less than 10 nM.
`Cn1c(=O)n(C2CCC(=O)NC2=O)c2ccc(F)c(N3CC(N4CCN([C@H]5CC[C@H](n6cc(NC(=O)c7cnn8ccc(N9C[C@H]%10C[C@@H]9CO%10)nc78)c(C(F)F)n6)CC5)CC4)C3)c21` (some centres unmarked) [I-745]: the DC50 is more than 200 nM under setting [1] and less than 10 nM under setting [2].
The matching figures for `Cn1c(=O)n(C2CCC(=O)NC2=O)c2cccc(N3CCN([C@@H]4CCN(C[C@H]5CC[C@H](n6cc(NC(=O)c7cnn8ccc(N9CC%10(COC%10)C9)nc78)c(C(F)F)n6)CC5)CC4(F)F)CC3)c21` (some centres unmarked) [I-746]: more than 200 nM and more than 200 nM.
On the same counts, the results for `Cn1c(=O)n(C2CCC(=O)NC2=O)c2cccc(N3CCN([C@H]4CCN(C[C@H]5CC[C@H](n6cc(NC(=O)c7cnn8ccc(N9CC%10(COC%10)C9)nc78)c(C(F)F)n6)CC5)CC4(F)F)CC3)c21` (some centres unmarked) [I-747] are more than 200 nM and more than 200 nM.
On the same counts, the results for `Cn1c(=O)n(C2CCC(=O)NC2=O)c2cccc(N3CC(CN4CCN(C[C@H]5CC[C@H](n6cc(NC(=O)c7cnn8ccc(N9C[C@H]%10C[C@@H]9CO%10)nc78)c(C(F)F)n6)CC5)CC4)C3)c21` (some centres unmarked) [I-748] are more than 200 nM and more than 200 nM.
